ChEMBL document CHEMBL6074674, “Development of Novel Silicon-Based Hydrophobic Tags (SiHyT) for Targeted Proteins Degradation” (J Med Chem, 2024)

These compounds were tested on HCC827 (assay: Antiproliferative activity against human HCC827 cells assessed as decrease in cell survival measured after 72 hrs by CCK-8 assay). Details: HCC827, 72 h.
Assay type: functional, cell-based

Structure (SMILES)	IC50 [nM]
COc1cc2ncnc(Nc3ccc(F)c(Cl)c3)c2cc1OCCOCCO[Si](c1ccccc1)(c1ccccc1)C(C)(C)C	> 10000
COc1cc2ncnc(Nc3ccc(F)c(Cl)c3)c2cc1OCCn1cc(CCO[Si](C)(C)C2CCCCC2)nn1	450
COc1cc2ncnc(Nc3ccc(F)c(Cl)c3)c2cc1OCCCN1CCN(CCO[Si](c2ccccc2)(c2ccccc2)C(C)(C)C)CC1	> 10000
COc1cc2ncnc(Nc3ccc(F)c(Cl)c3)c2cc1OCCCN1CCN(CCn2cc(CCCO[Si](C)(C)C3CCCCC3)nn2)CC1	> 10000
COc1cc2ncnc(Nc3ccc(F)c(Cl)c3)c2cc1OCCCN1CCN(CCn2cc(CCCCO[Si](c3ccccc3)(c3ccccc3)C(C)(C)C)nn2)CC1	3040
COc1cc2ncnc(Nc3ccc(F)c(Cl)c3)c2cc1OCCn1cc(CCCO[Si](C(C)C)(C(C)C)C(C)C)nn1	7460
COc1cc2ncnc(Nc3ccc(F)c(Cl)c3)c2cc1OCCCN1CCN(CCn2cc(CCCO[Si](c3ccccc3)(c3ccccc3)C(C)(C)C)nn2)CC1	1580
COc1cc2ncnc(Nc3ccc(F)c(Cl)c3)c2cc1OCCn1cc(CCO[Si](c2ccccc2)(c2ccccc2)C(C)(C)C)nn1	140
COc1cc2ncnc(Nc3ccc(F)c(Cl)c3)c2cc1OCCCN1CCN(CCn2cc(CCCCO[Si](C)(C)C3CCCCC3)nn2)CC1	> 10000
COc1cc2ncnc(Nc3ccc(F)c(Cl)c3)c2cc1OCCCCCCCCO[Si](c1ccccc1)(c1ccccc1)C(C)(C)C	> 10000
COc1cc2ncnc(Nc3ccc(F)c(Cl)c3)c2cc1OCCCCCCCO[Si](c1ccccc1)(c1ccccc1)C(C)(C)C	> 10000
COc1cc2ncnc(Nc3ccc(F)c(Cl)c3)c2cc1OCCn1cc(CCCCO[Si](c2ccccc2)(c2ccccc2)C(C)(C)C)nn1	110
COc1cc2ncnc(Nc3ccc(F)c(Cl)c3)c2cc1OCCn1cc(CCCO[Si](C)(C)C2CCCCC2)nn1	150

These compounds were tested on E3 ubiquitin-protein ligase RNF149/Epidermal growth factor receptor (Homo sapiens), P00533+Q8NC42 [UNDEFINED MUTATION] (assay: SiHyT-mediated degrader activity at RNF149/EGFR mutant in human HCC827 cels assessed as induction of EGFR degradation at 0.1 uM cells incubated in serum-free media for 8 hrs followed by incubation with compound for 24 hrs by western blot analysis). Details: not given.
Assay type: cell-based

Chain of E3 ubiquitin-protein ligase RNF149/Epidermal growth factor receptor (Homo sapiens), P00533+Q8NC42 [UNDEFINED MUTATION] (P00533 whole entry, looked up, change not shown): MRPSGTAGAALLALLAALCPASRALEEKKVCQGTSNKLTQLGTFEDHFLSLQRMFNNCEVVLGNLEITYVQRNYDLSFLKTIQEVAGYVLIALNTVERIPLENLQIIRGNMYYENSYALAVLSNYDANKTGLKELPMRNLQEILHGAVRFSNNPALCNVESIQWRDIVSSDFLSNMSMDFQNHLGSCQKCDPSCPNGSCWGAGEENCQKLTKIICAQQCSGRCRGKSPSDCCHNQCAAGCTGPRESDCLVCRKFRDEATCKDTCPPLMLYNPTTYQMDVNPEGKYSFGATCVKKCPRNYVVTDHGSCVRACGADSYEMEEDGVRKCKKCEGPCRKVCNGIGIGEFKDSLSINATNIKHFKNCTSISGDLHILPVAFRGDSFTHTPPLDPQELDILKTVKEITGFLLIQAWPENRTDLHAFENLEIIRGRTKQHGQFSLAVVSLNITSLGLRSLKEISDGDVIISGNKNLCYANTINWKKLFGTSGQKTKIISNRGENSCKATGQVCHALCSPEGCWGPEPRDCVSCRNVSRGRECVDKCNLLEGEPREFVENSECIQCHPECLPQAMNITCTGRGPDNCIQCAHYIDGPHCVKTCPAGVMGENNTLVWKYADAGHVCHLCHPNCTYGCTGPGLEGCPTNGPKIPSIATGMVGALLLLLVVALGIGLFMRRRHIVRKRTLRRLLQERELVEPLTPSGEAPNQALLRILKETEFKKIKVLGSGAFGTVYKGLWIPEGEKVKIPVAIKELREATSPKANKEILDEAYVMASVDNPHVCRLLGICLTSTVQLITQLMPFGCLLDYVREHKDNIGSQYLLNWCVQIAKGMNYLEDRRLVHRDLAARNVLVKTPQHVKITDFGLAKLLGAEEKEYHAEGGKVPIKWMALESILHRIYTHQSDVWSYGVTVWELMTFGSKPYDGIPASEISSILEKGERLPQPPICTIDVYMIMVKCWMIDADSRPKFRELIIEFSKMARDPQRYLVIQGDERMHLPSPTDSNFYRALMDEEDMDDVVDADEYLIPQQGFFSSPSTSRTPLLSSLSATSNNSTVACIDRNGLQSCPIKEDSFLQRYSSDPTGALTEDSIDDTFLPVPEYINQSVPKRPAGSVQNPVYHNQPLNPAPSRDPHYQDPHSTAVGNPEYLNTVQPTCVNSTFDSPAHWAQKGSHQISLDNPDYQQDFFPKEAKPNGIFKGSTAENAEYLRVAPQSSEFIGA
Chain of E3 ubiquitin-protein ligase RNF149/Epidermal growth factor receptor (Homo sapiens), P00533+Q8NC42 [UNDEFINED MUTATION] (Q8NC42 whole entry, looked up, change not shown): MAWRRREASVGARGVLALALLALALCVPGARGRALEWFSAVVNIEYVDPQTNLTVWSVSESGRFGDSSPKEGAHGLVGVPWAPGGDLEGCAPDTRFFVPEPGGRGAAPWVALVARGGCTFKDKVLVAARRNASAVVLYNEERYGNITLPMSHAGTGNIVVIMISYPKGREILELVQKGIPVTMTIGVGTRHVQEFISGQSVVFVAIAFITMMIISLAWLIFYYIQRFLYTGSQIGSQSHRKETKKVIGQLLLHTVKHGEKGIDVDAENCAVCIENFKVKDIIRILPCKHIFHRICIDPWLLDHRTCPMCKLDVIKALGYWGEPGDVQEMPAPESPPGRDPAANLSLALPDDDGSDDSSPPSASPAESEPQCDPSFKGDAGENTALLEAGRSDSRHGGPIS

Structure (SMILES)	Activity [%]
COc1cc2ncnc(Nc3ccc(F)c(Cl)c3)c2cc1OCCn1cc(CCO[Si](C)(C)C2CCCCC2)nn1	12.7
COc1cc2ncnc(Nc3ccc(F)c(Cl)c3)c2cc1OCCCN1CCN(CCO[Si](c2ccccc2)(c2ccccc2)C(C)(C)C)CC1	0
COc1cc2ncnc(Nc3ccc(F)c(Cl)c3)c2cc1OCCCN1CCN(CCn2cc(CCCO[Si](C)(C)C3CCCCC3)nn2)CC1	0
COc1cc2ncnc(Nc3ccc(F)c(Cl)c3)c2cc1OCCCN1CCN(CCn2cc(CCCCO[Si](c3ccccc3)(c3ccccc3)C(C)(C)C)nn2)CC1	0
COc1cc2ncnc(Nc3ccc(F)c(Cl)c3)c2cc1OCCn1cc(CCCO[Si](C(C)C)(C(C)C)C(C)C)nn1	4.2
COc1cc2ncnc(Nc3ccc(F)c(Cl)c3)c2cc1OCCCN1CCN(CCn2cc(CCCCO[Si](C)(C)C3CCCCC3)nn2)CC1	0
COc1cc2ncnc(Nc3ccc(F)c(Cl)c3)c2cc1OCCCCCCCCO[Si](c1ccccc1)(c1ccccc1)C(C)(C)C	0
COc1cc2ncnc(Nc3ccc(F)c(Cl)c3)c2cc1OCCCCCCCO[Si](c1ccccc1)(c1ccccc1)C(C)(C)C	0
COc1cc2ncnc(Nc3ccc(F)c(Cl)c3)c2cc1OCCn1cc(CCCO[Si](C)(C)C2CCCCC2)nn1	52.3

Further lines, results first:

Activity [%]	Structure (SMILES)
0	COc1cc2ncnc(Nc3ccc(F)c(Cl)c3)c2cc1OCCOCCO[Si](c1ccccc1)(c1ccccc1)C(C)(C)C
0	COc1cc2ncnc(Nc3ccc(F)c(Cl)c3)c2cc1OCCCN1CCN(CCn2cc(CCCO[Si](c3ccccc3)(c3ccccc3)C(C)(C)C)nn2)CC1
46.4	COc1cc2ncnc(Nc3ccc(F)c(Cl)c3)c2cc1OCCn1cc(CCO[Si](c2ccccc2)(c2ccccc2)C(C)(C)C)nn1
28	COc1cc2ncnc(Nc3ccc(F)c(Cl)c3)c2cc1OCCn1cc(CCCCO[Si](c2ccccc2)(c2ccccc2)C(C)(C)C)nn1

The compounds below were run on E3 ubiquitin-protein ligase RNF149/Epidermal growth factor receptor (Homo sapiens), P00533+Q8NC42 [UNDEFINED MUTATION] (assay: SiHyT-mediated degrader activity at RNF149/EGFR mutant in human HCC827 cells assessed as induction of EGFR degradation at 1 uM cells incubated in serum-free media for 8 hrs followed by incubation with compound for 24 hrs by western blot analysis). Details: not given.
Assay type: cell-based

Structure (SMILES)	Activity [%]
COc1cc2ncnc(Nc3ccc(F)c(Cl)c3)c2cc1OCCn1cc(CCO[Si](C)(C)C2CCCCC2)nn1	47
COc1cc2ncnc(Nc3ccc(F)c(Cl)c3)c2cc1OCCCN1CCN(CCO[Si](c2ccccc2)(c2ccccc2)C(C)(C)C)CC1	16.8
COc1cc2ncnc(Nc3ccc(F)c(Cl)c3)c2cc1OCCCN1CCN(CCn2cc(CCCO[Si](C)(C)C3CCCCC3)nn2)CC1	13.7
COc1cc2ncnc(Nc3ccc(F)c(Cl)c3)c2cc1OCCCN1CCN(CCn2cc(CCCCO[Si](c3ccccc3)(c3ccccc3)C(C)(C)C)nn2)CC1	0
COc1cc2ncnc(Nc3ccc(F)c(Cl)c3)c2cc1OCCn1cc(CCCO[Si](C(C)C)(C(C)C)C(C)C)nn1	18.2
COc1cc2ncnc(Nc3ccc(F)c(Cl)c3)c2cc1OCCCN1CCN(CCn2cc(CCCCO[Si](C)(C)C3CCCCC3)nn2)CC1	18.4
COc1cc2ncnc(Nc3ccc(F)c(Cl)c3)c2cc1OCCCCCCCCO[Si](c1ccccc1)(c1ccccc1)C(C)(C)C	0
COc1cc2ncnc(Nc3ccc(F)c(Cl)c3)c2cc1OCCCCCCCO[Si](c1ccccc1)(c1ccccc1)C(C)(C)C	0
COc1cc2ncnc(Nc3ccc(F)c(Cl)c3)c2cc1OCCn1cc(CCCO[Si](C)(C)C2CCCCC2)nn1	55.3

The next lines start with the values.

Activity [%]	Structure (SMILES)
0	COc1cc2ncnc(Nc3ccc(F)c(Cl)c3)c2cc1OCCOCCO[Si](c1ccccc1)(c1ccccc1)C(C)(C)C
10.8	COc1cc2ncnc(Nc3ccc(F)c(Cl)c3)c2cc1OCCCN1CCN(CCn2cc(CCCO[Si](c3ccccc3)(c3ccccc3)C(C)(C)C)nn2)CC1
72.1	COc1cc2ncnc(Nc3ccc(F)c(Cl)c3)c2cc1OCCn1cc(CCO[Si](c2ccccc2)(c2ccccc2)C(C)(C)C)nn1
58.4	COc1cc2ncnc(Nc3ccc(F)c(Cl)c3)c2cc1OCCn1cc(CCCCO[Si](c2ccccc2)(c2ccccc2)C(C)(C)C)nn1
